Data set [1] deals with T1, cNLRX1 (wild type) (Homo sapiens, UniProt Q86UT6).
T1 construct: cNLRX1 (AA 667–970) was cloned into pPinkHC-Alpha-SDK; polyhistidine (6x); made in house; host or cells: Pichia pastoris (Strain 4: ade2, prb1, pep4)
As to the kind of experiment: SPR (Biacore T200) direct binding to immobilized cNLRX1 wild type. Conditions: for kon: NLRX1: WT, read-out: ka. How it is done:
White colonies on drop adenine media were screened for protein expression via small-scale induction and both pellets and supernatants were screened for expression via western blot using an anti-polyhistidine (6x) antibody (Immunology Consultants Laboratory, Inc). […] Every 24 hours post induction cells were fed 10 mL of methanol and 10% filter sterilized sorbitol for 4 days post induction. Cells were subsequently harvested at 10,000 x g for 15 min and were either used immediately or stored at -80°C.
Cells were re-suspended in 40 mL of ice-cold lysis buffer (50mM Sodium Phosphate, 200mM sodium chloride, 25mM Sucrose, 0.1% T-100, pH = 7.2) and sonicated 8 times at max amplitude using a 15 sec ON 45 sec OFF cycle. Lysed cells were centrifuged at 15,000 x g for 30 min at 4°C. Supernatant were loaded onto a 150 mL Super-loop and purified using a programmed immobilized metal affinity chromatography gradient protocol on the AKTA prime plus. Bound protein was washed with 40 column volumes of wash buffer (50 mM sodium phosphate buffer, 300 mM sodium chloride, 20 mM imidazole, pH 8.0) and eluted in 1 mL fractions over a 0.02-1M imidazole 40 mL gradient. Purity was assessed via SDS-PAGE. Proteins were further purified via gel filtration chromoatograhy using a Superdex75 column (16/600) in 50 mM sodium phosphate, 300 mM sodium chloride pH 8.0. […] Protein was dialyzed (1:1000) twice at 4°C for a minimum of 8 hours in appropriate buffers for downstream assays.
(§1) Direct binding experiments were performed via the Biacore T200 Surface Plasmon Resonance (SPR) Technology (Georgetown University). […] The cNLRX1 was immobilized to a CM4 or CM5 chip by amine coupling method. Two adjacent surfaces were activated by injection of a 1:1 (v:v) mixture of 0.1 M N-Hydroxysuccinimide (NHS) and 0.4 M 1-Ethyl-3-(3-dimethyl-aminopropyl)-carbodiimide hydrochloride (EDC) for 720 seconds. Experimental flow cell was then injected with the cNLRX1 that was diluted in 10 mM pH 4.0 sodium acetate buffer to a final concentration of 25 μg/mL. Both experimental and the reference flow cells were inactivated by injection of 1M Ethanolamine-HCl pH 8.0 for 720 seconds.
(§2) Negative control compound, 1,14-bis (3,b-dimethoxypheny1)-tetradecane, was tested at a concentration of 20 μM. Injection time was 60 seconds and dissociation time was 300 seconds. […] Data was analyzed by using the BiaEvaluation software (GE Healthcare) with 1:1 binding model for steady state affinity. Raw data was exported and graphed using Prizm for Mac v5.0d and excel.

Data set [2] deals with DSS-induced colitis and spontaneous pan-enteritis in IL-10−/− mice. The settings on record: cited from earlier work.
In data set [3] the target is T2, cNLRX1 ASP677, PHE680, PHE681, and GLU684 to alanine mutant (Mutant) (Homo sapiens, UniProt Q86UT6, D677A/E684A/F680A/F681A).
T2 construct: cNLRX1 (AA 667–970) was cloned into pPinkHC-Alpha-SDK; polyhistidine (6x); made in house
T2 sequence (Q86UT6 667-970 D677A/F680A/F681A/E684A limits assumed): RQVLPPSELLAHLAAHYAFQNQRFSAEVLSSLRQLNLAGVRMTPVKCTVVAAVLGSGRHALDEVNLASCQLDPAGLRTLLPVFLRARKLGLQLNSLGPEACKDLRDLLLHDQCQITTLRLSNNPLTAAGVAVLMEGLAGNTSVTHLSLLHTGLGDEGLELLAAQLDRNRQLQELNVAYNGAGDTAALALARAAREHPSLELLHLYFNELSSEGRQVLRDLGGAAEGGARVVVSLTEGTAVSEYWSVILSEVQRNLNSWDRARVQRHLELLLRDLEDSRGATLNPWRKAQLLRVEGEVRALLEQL
As to the kind of experiment: SPR (Biacore T200) direct binding to immobilized Mutant cNLRX1. How it is done:
as §1, §2

Data set [4] concerns NF-κB p65 activity in BMDMs from wild type and Nlrx1-/- mice. The data set can be described thus: NF-κB p65 ELISA (TransAM) on LPS-stimulated bone marrow derived macrophages. It counts as cell-based, mouse. The settings on record: LPS 1μg/ml 12 hours, then 40 μM compound 12 hours. How it is done: Bone marrow derived macrophages (BMDM)s were isolated from hind legs of wild type and Nlrx1-/- mice in sterile conditions and cultured for 7 days as described. […] Nuclear extraction was performed on colon homogenates using the Active Motif Nuclear Extraction Kit (Carlsbad, CA) as previously described. ELISA was performed on nuclear fractions using the Active Motif TransAM® NF-κB p65 kit according to the manufacturer’s instructions.
The NF-κB activation by NLRX1 ligands was detected and quantified by using the Trans-AM™ NF-κB p65 ELISA-based assay (Active Motif, Carlsbad, CA) as described in the manual of the Active Motif TransAM® NF-κB p65 kit.
Fig 4 Effect of NLRX1 disruption on NF-κB activation in Bone marrow derived macrophage (BMDM). […] Nuclear extraction was performed on colon homogenates using the Active Motif Nuclear Extraction Kit (Carlsbad, CA). ELISA was performed on both cytoplasmic and nuclear fractions using the Active Motif TransAM® NF-κB p65 kit according to the manufacturer’s instructions. Letter superscripts indicate significant (P-value < 0.05) differences by ANOVA.

The subject of data set [5] is PPARγ. Conditions: cited from earlier work.
Data set [6] deals with DSS-induced colitis. The settings on record: for disease activity: 8% DSS six days, PUA 40 mg/kg oral gavage daily vs PBS. How it is done: C57BL/6J wild-type (WT) and Nlrx1-/- mice (n = 10) ranging from 8–10 weeks of age were administered 8% DSS (average […] molecular weight) in drinking water for six days. Control mice received tap water. […] On day 6, mice were euthanized via carbon dioxide narcosis with secondary cervical dislocation. All mice were weighed and scored daily. Clinical scores were based on physical appearance (0–3), fecal consistency (0–3), presence of rectal bleeding (0–4), and weight loss (0–3) and assigned a compounded score for overall disease activity (0–4).
Total RNA was isolated from whole mouse colon using a Qiagen (Germantown, MD) RNA isolation mini kit. Complementary DNA (cDNA) was generated from each sample (1 μg RNA) using the iScript cDNA synthesis kit (Bio-Rad). Standards were produced through a polymerase chain reaction on the cDNA with Taq DNA polymerase from Invitrogen. The amplicon was purified using the Mini-Elute PCR purification kit from Qiagen. Expression levels were obtained through quantitative real-time PCR on a Bio-Rad (Hercules, CA) CFX 96 Thermal Cycler using the Bio-Rad SYBR Green Supermix. For analysis, the starting amount of anti-microbial peptide cDNA was compared to that of beta-actin, as a control. cDNA concentrations for genes of interest were examined by RT-PCR as described.
Colonic samples were fixed in 10% buffered formalin, embedded in paraffin, processed routinely and sectioned at 5 μm. Sections were stained with hematoxylin and eosin (H&E) and then examined and graded using an Olympus microscope (Olympus America, Center Valley, PA) and ImagePro software. Sections were graded for leukocytic infiltration (0–4), epithelial erosion (0–4) and mucosal thickening (0–4).

Data set [7] concerns the molecule itself. As to the kind of experiment: SEC; Superdex 75 column (16/600) at 1 ml/min in 50 mM sodium phosphate, 300 mM sodium chloride, pH 8; blue dextran run alongside.
[8] abbreviates: Nlrx1-/- mice, day six of DSS, PUA 40 mg/kg oral gavage.
[9] abbreviates: WT mice, day six of DSS, PUA 40 mg/kg oral gavage.

“Also recorded” adds a separate entry of the source. Read-outs that look alike come from different tables or passages of the source.

Data on five molecules can be found in PMC4694766, “Modeling-Enabled Characterization of Novel NLRX1 Ligands” (PLoS ONE, 2015).

For the molecule `COc1cc(CCCCCCCCCCCCCCc2cc(OC)cc(OC)c2)cc(OC)c1` [1,14-bis (3,b-dimethoxypheny1)-tetradecane, reference compound], the “binding to cNLRX1 by SPR (in words)” value in data set [1] (ssRNA 0.5-8 μM, negative control injected at 20 μM) is on record as “failed to bind cNLRX1; also recorded: No binding was observed”.
In the case of `CCCCC=CC=CC=CCCCCCCCC(=O)O` [ESA, eleostearic acid], in data set [2], the “effect on gut inflammation” value is given as “able to regulate gut inflammation”. Besides, in data set [3], the “equilibrium constant of dissociation (KD)” value amounted to 170 µM. In data set [1], this molecule returned a Kd of 13.3 µM. In addition, in data set [1] (SPR), the kon stood at 3420 M⁻¹ s⁻¹.
On to `CC/C=C\C/C=C\C/C=C\C/C=C\C/C=C\C/C=C\CCC(=O)O` [DHA, docosahexaenoic acid], for which the NF-κB activity result in data set [4] (Nlrx1-/- BMDMs) is reported as “abrogates the effect”; in data set [4] (wild type BMDMs), “suppressed the NF-κB activity”. For the same molecule, the Kd in data set [1] (SPR, cNLRX1 WT, read-out: equilibrium constant of dissociation (KD)) was found to be 2.3 µM.
For the molecule `CCCC\C=C/C=C/C=C\CCCCCCCC(=O)O` [PUA, punicic acid], in data set [2] (DSS-induced colitis and spontaneous pan-enteritis in IL-10−/− mice), the effect on colitis entry is “ameliorate DSS-induced colitis and spontaneous pan-enteritis”. For the same molecule, in data set [3], the “equilibrium constant of dissociation (KD)” value was found to be 338 µM. Moreover, the NF-κB activity entry is given as “abrogates the effect” in data set [4] (Nlrx1-/- BMDMs) and “suppressed the NF-κB activity” in data set [4] (wild type BMDMs). Also, the “binding and activation of PPARγ” value in data set [5] was “robustly bind and activate PPARγ”. This molecule also yielded a Kd in data set [1] of 14.6 µM. Further, the kon in data set [1] (SPR) was 2320 M⁻¹ s⁻¹. Further, the results for the disease activity result in data set [6] (Nlrx1-/- mice) and in data set [6] (WT mice) were “no observable inhibition of colitis” and “significant symptom regulation”, respectively. Also, the “TNFα mRNA expression in whole colon” value is on record as “overall unaffected” in data set [6] (setting [8]) and “significantly lower” in data set [6] (setting [9]). The “colon histopathology (inflammatory amelioration)” value in data set [6] (setting [8]) is reported as “failed to show any inflammatory amelioration”. Moreover, the “colon histopathology scores (epithelial erosion, leukocytic infiltration, mucosal thickening)” value in data set [6] (setting [9]) was “significantly lower scores”.

B1: C-terminal fragment of the human NLRX1 (cNLRX1), AA 667-970 (domain or fragment, UniProt Q86UT6 667-970, looked up)
chain: RQVLPPSELLDHLFFHYEFQNQRFSAEVLSSLRQLNLAGVRMTPVKCTVVAAVLGSGRHALDEVNLASCQLDPAGLRTLLPVFLRARKLGLQLNSLGPEACKDLRDLLLHDQCQITTLRLSNNPLTAAGVAVLMEGLAGNTSVTHLSLLHTGLGDEGLELLAAQLDRNRQLQELNVAYNGAGDTAALALARAAREHPSLELLHLYFNELSSEGRQVLRDLGGAAEGGARVVVSLTEGTAVSEYWSVILSEVQRNLNSWDRARVQRHLELLLRDLEDSRGATLNPWRKAQLLRVEGEVRALLEQL
notes: NLRX1, human, C-terminal fragment, AA 667-970; Cloned into pPinkHC-Alpha-SDK; The vector may add a secretion signal, but the protein was purified from lysed cells; also called cNLRX1 wildtype; cNLRX1 (WT)
Turning to B1, in data set [7], the binding result is listed as “binds”.
